Values of other authors in patent publication US10815228B2, “Aztreonam derivatives and uses thereof” (ARIXA PHARMACEUTICALS, INC., priority 2017, dated 2020).

oral bioavailability (aztreonam, statement in words): poor oral bioavailability
oral bioavailability of aztreonam (orally administered aztreonam): less than 1%
SMILES: C[C@H]1[C@H](NC(=O)/C(=N/OC(C)(C)C(=O)O)c2csc(N)n2)C(=O)N1S(=O)(=O)O [aztreonam, (2-((((E)-1-(2-aminothiazol-4-yl)-2-(((2S,3S)-2-methyl-4-oxo-1-sulfoazetidin-3-yl)amino)-2-oxoethylidene)amino)oxy)-2-methylpropanoic acid)]
